# Test results reported in paper PMC9054876 (Cancer Chemotherapy and Pharmacology, 2022).
# Tests used:
# [1] = high-fat meal, healthy participants; cited from earlier work
# [2] = Bootstrap-derived secondary PK parameters, forest plots and model-based simulation
# From the text: (§1) The association or lack of association between the observed covariates and model-derived secondary PK parameters [e.g., area under the concentration–time curve over the dosing interval at steady state (AUCτ,ss)] for patients with cancer was illustrated using bootstrap analysis-based forest plots (see ESM 1 for method details). In the bootstrap analysis, N = 100 new data sets were generated with replacement from the analysis data set. The sampling was stratified by study, and the final models were fit to each of the resampled data sets. […] For categorical covariates, the mean and its 5th and 95th percentiles of PK parameters for each category were computed. For continuous covariates, the mean and its 5th and 95th percentiles of PK parameters, corresponding to the 0–5th and 95–100th percentile of the covariate, were computed. The impact of the covariates in the forest plots were presented on a relative scale. The reference value was the arithmetic mean of the corresponding PK parameter.
# (§2) The derivation of these secondary PK parameters is based on a bootstrap analysis (see following). Only participants with at least one observation above the lower limit of quantitation in the analysis data set were included in the derivation of the secondary parameters.
# (§3) In the bootstrap analysis, N = 100 new data sets (with the participants in the analysis data sets with at least one observation with the same number of participants as in the analysis data sets) were drawn with replacement from the analysis data sets. The sampling was stratified by study. The final models were fit to each of the resampled data sets.
# (§4) For each of the N = 100 population parameter vectors, the n observed covariate vectors were used to predict the corresponding n primary and secondary parameters, where n = the unique combination of ID and the time-varying variables formulation, μ-opioids and dose (while National Cancer Institute Organ Dysfunction Group (NCI-ODG) class was handled as a time-varying covariate in the stepwise covariate method (SCM), its baseline value was used in the derivation of the forest plots since NCI-ODG class is derived from total bilirubin, alanine aminotransferase and aspartate aminotransferase, which were also assumed to be time-constant in the forest plot).
# (§5) Descriptive statistics (mean, standard deviation and the 5th and 95th percentiles) were calculated for the n secondary parameters. These summary statistics are the bootstrap estimates of the typical individual value, standard error, and 90% confidence interval of the secondary parameters.
# [3] = clinical; conditions: for CLpar: typical individual, 500 mg
# From the text: This step included food status, formulation, and oral dose level.
# In the second step, the remaining covariates were further evaluated, including demographics (age, body weight, race, and sex), patient characteristics (disease status, i.e., patient or healthy participant, tumor type, National Cancer Institute Organ Dysfunction Working Group [NCI-ODWG] classification of liver impairment, and baseline tumor burden), laboratory values (serum albumin, total bilirubin, alkaline phosphatase, international normalized ratio, and total protein), and co-medications (opioid analgesics and gefitinib).
# SCM was applied in the structural covariate model building step, followed by an adaptive scope reduction (ASR) SCM in the following covariate searching step to reduce run times. For the SCM procedures, the forward selection p value was set to 0.01, and the backward elimination p value to 0.001. The ASR threshold p value was set to the same as the forward p value of 0.01.
# Continuous covariate relationships were coded as power models (Formula 1), and categorical covariates were coded as a fractional difference to the most common category (Formula 2). An alternative ‘hockey-stick’ parameterization (Formula 3) was tested for dose as continuous covariate on bioavailability of the parent drug (Par).1 ParCovm=Cov/Covref^θm 2 ParCovm=1ifCov=Covref1+θmifCov≠Covref 3 ParCovm=1+θm1·Cov-CovrefifCov≤Covref1+θm2·Cov-CovrefifCov>Covref
# Model selection and qualification was based on the changes in the objective function value (OFV) provided by NONMEM and the visual inspection of graphical diagnostics, including goodness-of-fit plots and visual predictive checks (VPCs).
# The population PK analyses were performed using NONMEM version 7.3.0. Data management and further processing of NONMEM output were performed using R version 3.3.3. VPCs and covariate model building were run on PsN version 4.4.8.
# The IIV terms are included on CLpar, first-order absorption rate constant (ka), zero-order absorption duration (D1), and bioavailability of parent drug (Fpar).
# [4] = clinical; conditions: human, in vivo, po
# From the text: as §1, §2, §3, §4, §5
# [5] = design: method as in manuscript in preparation; conditions: 500 mg single dose TF2, non-compartmental analysis; ref manuscript in preparation; cited from earlier work
# [6] = oral, cited from earlier work
# [7] = cited from earlier work
# [8] = cited from earlier work; remark: listed apart in the source
# [9] = design: method as in PMID 32562690; conditions: cited from earlier work
# [10] = bootstrap predicted, cancer patients
# [11] = bootstrap predicted, cancer patients, 250 mg/day
# [12] = CF1 vs typical participant taking TF2 with a non-high-fat meal
# [13] = fasting vs typical participant taking TF2 with a non-high-fat meal
# [14] = final model, reference patient, multiplied by 0.9
# [15] = fractional difference to reference category
compound,measurement,setting,value
CN1CCC(COc2cnc(-c3cccc(Cn4nc(-c5cccc(C#N)c5)ccc4=O)c3)nc2)CC1 [Tepotinib],increase in tepotinib exposure in the presence of food,[1],two-fold
same,"CLpar, mean","[2]; bootstrap predicted typical individual, cancer patients, multiplied by 0.9",19.3 L/h
same,"Fpar actual doses, mean",[2]; [10],1.12
same,"Tss (time to steady-state), mean",[2]; [10],128.3 h
same,"t1/2eff (effective half-life), mean",[2]; [10],32.1 h
same,"Fpar 250 mg, mean","[2]; bootstrap predicted, cancer patients, 250 mg",1.04
same,"C max, ss 250 mg, mean",[2]; [11],683 ng/mL
same,"Ctrough,ss 250 mg, mean",[2]; [11],523 ng/mL
same,"Fpar 500 mg, mean","[2]; bootstrap predicted, cancer patients, 500 mg",0.94
same,"Ctrough,ss 500 mg, mean","[2]; bootstrap predicted, cancer patients, 500 mg/day",952 ng/mL
same,"Vss, mean","[2]; bootstrap predicted, cancer patients, multiplied by 0.9","2,091 L"
same,"AUCτ,ss higher in moderate renal impairment","[2]; eGFR 39.4-59 vs mean observed eGFR 99.8 mL/min/1.73 m^2, forest plot",2%
same,effect of covariates on tepotinib AUC,"[2]; race, hepatic impairment, renal impairment, age, sex, body weight, opioid analgesics or gefitinib, 90% CIs within 80–125%",no or marginal effects
same,CF1 covariate on ka,[3]; CF1 vs TF2,–0.442
same,reduction of Fpar,[3]; [12],65.6%
same,reduction of ka,[3]; [12],44.2%
same,TF1* covariate on ka,[3]; TF1* (finely micronized) vs TF2,0.674
same,TF1 covariate on ka,[3]; TF1 vs TF2,0.305
same,TF3 covariate on Fpar,[3]; TF3 vs TF2,0.154
same,CF1 covariate on Fpar,[3]; capsule formulation 1 (non-micronized) vs TF2,–0.656
same,influence of gefitinib co-administration on tepotinib PK,[3]; covariate analysis,No statistically significant influence
same,reduction of Fpar,[3]; [13],20.9%
same,reduction of ka,[3]; [13],56.1%
same,DOSE covariate on Fpar,[3]; final model,–0.0412 /100 mg
same,D1 (zero-order absorption duration),"[3]; final model, reference patient",4.09 h
same,CLpar/F (apparent clearance),"[3]; final model, reference patient, 500 mg TF2, fed non-high-fat meal, multiplied by 0.9 for salt to base",20.4 L/h
same,ka (first-order absorption rate constant),"[3]; final model, reference patient, TF2, fed non-high-fat meal",0.278 h⁻¹
same,Qpar/F,[3]; [14],1.32 L/h
same,"Vp,par/F",[3]; [14],1180 L
same,"Vc,par/F","[3]; final model, reference patient, multiplied by 0.9 for salt to base",1020 L
same,Colorectal cancer covariate on CLpar/F,[3]; fractional difference,–0.281
same,Hepatocellular carcinoma covariate on CLpar/F,[3]; fractional difference,0.130
same,NCI-ODG class > 0 covariate on Fpar,[3]; fractional difference,–0.0729
same,"Non-small cell lung cancer covariate on Vc,par/F",[3]; fractional difference,–0.232
same,"Patient/participant covariate on Vp,par/F",[3]; fractional difference,–0.810
same,Study MS200095-0028 covariate on CLpar/F,[3]; fractional difference,–0.115
same,μ-Opioids covariate on CLpar/F,[3]; fractional difference,–0.167
same,Fasting state covariate on D1,[3]; [15],–0.370
same,Fasting state covariate on Fpar,[3]; [15],–0.209
same,Fasting state covariate on ka,[3]; [15],–0.561
same,High-fat meal covariate on Fpar,[3]; [15],0.320
same,half-life,"[3]; human, in vivo",~1920 min
same,exposure increase between 500 and 1400 mg,"[3]; mostly CF2, Study 001",doubling
same,reduction of bioavailability by liver dysfunction (NCI-ODWG),[3]; oral administration,7.29%
same,"Age covariate on Vc,par/F",[3]; power model,0.219
same,Body weight at baseline covariate on Fpar,[3]; power model,–0.475
same,INR at baseline covariate on Qpar/F,[3]; power model,3.81
same,Serum albumin at baseline covariate on Qpar/F,[3]; power model,4.14
same,eGFR at baseline covariate on CLpar/F,[3]; power model,0.199
same,time dependence of PK,[3]; single dose vs steady state,time-independent
same,CLpar,[3]; eGFR 30 mL/min/1.73 m^2,16.2 L/h
same,CLpar,[3]; eGFR 60 mL/min/1.73 m^2,18.6 L/h
same,CLpar,[3]; eGFR 80 mL/min/1.73 m^2,19.7 L/h
same,CLpar,[3]; eGFR 110 mL/min/1.73 m^2,20.9 L/h
same,dose proportionality of PK,[3]; up to the therapeutic dose of 500 mg,approximately dose-proportional
same,AUC,[4]; 250 mg/day,12300 ng·h/mL
same,half-life,[4]; 500 mg,4.24 days
same,AUC,[4]; 500 mg/day,22300 ng·h/mL
same,Cmax,[4]; 500 mg/day,1240 ng/mL
same,total plasma AUC lower in moderate hepatic impairment than healthy participants,[5],13%
same,time to maximum concentration (Tmax),"[6]; steady state, fed conditions",approximately 8 h
same,terminal elimination half-life,[6],approximately 32 h
same,share of administered dose of any single metabolic pathway,[7]; based on in vitro studies and human mass balance data,≤ 25%
same,absolute bioavailability,[7],72%
same,contribution to total circulating radioactivity,[7],55%
same,total radiolabeled material excreted via feces,[7]; mass balance study,77.9%
same,urinary excretion recovery,[7]; mass balance study,13.6%
same,effect of co-administration of tepotinib with gefitinib on exposure,[8],no effect
same,solubility,[9],low-solubility
"COc1cc2ncnc(Nc3ccc(F)c(Cl)c3)c2cc1OCCCN1CCOCC1 [gefitinib, reference compound]",effect of co-administration of tepotinib with gefitinib on exposure,[8],no effect
